# Results as given in ChEMBL document CHEMBL2439971, “Design, synthesis and antiproliferative evaluation of fluorenone analogs with DNA topoisomerase I inhibitory properties” (Bioorg Med Chem, 2013).
# Active and inactive are the calls of the source. The rule behind the calls is not given here.
# Legend:
# [1] = system: COLO 205; assay: Cytotoxicity against human COLO205 cells after 48 hrs by sulforhodamine B assay; assay type: functional; settings: COLO 205, 48 h
# [2] = system: KM12; assay: Cytotoxicity against human KM12 cells after 48 hrs by sulforhodamine B assay; assay type: functional; settings: KM12, 48 h
# [3] = system: OVCAR-8; assay: Cytotoxicity against human OVCAR8 cells at 10 uM after 48 hrs by sulforhodamine B assay relative to control; assay type: functional
# [4] = system: HT-29; assay: Cytotoxicity against human HT-29 cells after 48 hrs by sulforhodamine B assay; assay type: functional; settings: HT-29, 48 h
# [5] = system: ACHN; assay: Cytotoxicity against human ACHN cells after 48 hrs by sulforhodamine B assay; assay type: functional
# [6] = target: DNA topoisomerase 1 (Homo sapiens) (UniProt P11387); assay: Inhibition of recombinant human DNA topoisomerase 1-mediated relaxation of supercoiled pHOT DNA after 45 mins by agarose gel electrophoresis
# [7] = system: CAKI-1; assay: Cytotoxicity against human CAKI-1 cells at 10 uM after 48 hrs by sulforhodamine B assay relative to control; assay type: functional
# [8] = system: MOLT-4; assay: Cytotoxicity against human MOLT4 cells at 10 uM after 48 hrs by sulforhodamine B assay relative to control; assay type: functional
# [9] = system: SK-MEL-28; assay: Cytotoxicity against human SK-MEL-28 cells after 48 hrs by sulforhodamine B assay; assay type: functional; settings: SK-MEL-28, 48 h
# [10] = system: OVCAR-5; assay: Cytotoxicity against human OVCAR5 cells at 10 uM after 48 hrs by sulforhodamine B assay relative to control; assay type: functional
# [11] = system: NCI/ADR-RES; assay: Cytotoxicity against human NCI/ADR-RES cells at 10 uM after 48 hrs by sulforhodamine B assay relative to control; assay type: functional
# [12] = system: SK-MEL-2; assay: Cytotoxicity against human SK-MEL-2 cells at 10 uM after 48 hrs by sulforhodamine B assay relative to control; assay type: functional
# [13] = system: PC-3; assay: Cytotoxicity against human PC3 cells at 10 uM after 48 hrs by sulforhodamine B assay relative to control; assay type: functional
# [14] = system: HCT-15; assay: Cytotoxicity against human HCT15 cells at 10 uM after 48 hrs by sulforhodamine B assay relative to control; assay type: functional
# [15] = system: HOP-62; assay: Cytotoxicity against human HOP62 cells after 48 hrs by sulforhodamine B assay; assay type: functional; settings: HOP-62, 48 h
# [16] = system: RPMI-8226; assay: Cytotoxicity against human RPMI8226 cells at 10 uM after 48 hrs by sulforhodamine B assay relative to control; assay type: functional
# [17] = system: LOX IMVI; assay: Cytotoxicity against human LOXIMVI cells at 10 uM after 48 hrs by sulforhodamine B assay relative to control; assay type: functional
# [18] = system: HOP-62; assay: Cytotoxicity against human HOP62 cells at 10 uM after 48 hrs by sulforhodamine B assay relative to control; assay type: functional
# [19] = system: UACC-257; assay: Cytotoxicity against human UACC257 cells after 48 hrs by sulforhodamine B assay; assay type: functional; settings: UACC-257, 48 h
# [20] = system: SK-MEL-5; assay: Cytotoxicity against human SK-MEL-5 cells after 48 hrs by sulforhodamine B assay; assay type: functional; settings: SK-MEL-5, 48 h
# [21] = system: MDA-MB-231; assay: Cytotoxicity against human MDA-MB-231 cells after 48 hrs by sulforhodamine B assay; assay type: functional; settings: MDA-MB-231, 48 h
# [22] = system: HCT-15; assay: Cytotoxicity against human HCT15 cells after 48 hrs by sulforhodamine B assay; assay type: functional; settings: HCT-15, 48 h
# [23] = system: ACHN; assay: Cytotoxicity against human ACHN cells at 10 uM after 48 hrs by sulforhodamine B assay relative to control; assay type: functional
# [24] = system: OVCAR-4; assay: Cytotoxicity against human OVCAR4 cells at 10 uM after 48 hrs by sulforhodamine B assay relative to control; assay type: functional
# [25] = system: MDA-MB-468; assay: Cytotoxicity against human MDA-MB-468 cells after 48 hrs by sulforhodamine B assay; assay type: functional; settings: MDA-MB-468, 48 h
# [26] = system: MOLT-4; assay: Cytotoxicity against human MOLT4 cells after 48 hrs by sulforhodamine B assay; assay type: functional; settings: MOLT-4, 48 h
# [27] = system: CCRF-CEM; assay: Cytotoxicity against human CCRF-CEM cells at 10 uM after 48 hrs by sulforhodamine B assay relative to control; assay type: functional
# [28] = system: HT-29; assay: Cytotoxicity against human HT-29 cells at 10 uM after 48 hrs by sulforhodamine B assay relative to control; assay type: functional
# [29] = system: OVCAR-3; assay: Cytotoxicity against human OVCAR3 cells at 10 uM after 48 hrs by sulforhodamine B assay relative to control; assay type: functional
# [30] = system: K562; assay: Cytotoxicity against human K562 cells at 10 uM after 48 hrs by sulforhodamine B assay relative to control; assay type: functional
# [31] = species on record: Homo sapiens; assay: Inhibition of telomerase (unknown origin) at 10 uM TRAP assay
# [32] = system: UACC-257; assay: Cytotoxicity against human UACC257 cells at 10 uM after 48 hrs by sulforhodamine B assay relative to control; assay type: functional
# [33] = system: UO-31; assay: Cytotoxicity against human UO31 cells after 48 hrs by sulforhodamine B assay; assay type: functional; settings: UO-31, 48 h
# [34] = system: SNB-75; assay: Cytotoxicity against human SNB75 cells at 10 uM after 48 hrs by sulforhodamine B assay relative to control; assay type: functional
# [35] = system: SN12C; assay: Cytotoxicity against human SN12C cells after 48 hrs by sulforhodamine B assay; assay type: functional
# [36] = system: DU-145; assay: Cytotoxicity against human DU145 cells after 48 hrs by sulforhodamine B assay; assay type: functional; settings: DU-145, 48 h
# [37] = system: NCI-H460; assay: Cytotoxicity against human NCI-H460 cells at 10 uM after 48 hrs by sulforhodamine B assay relative to control; assay type: functional
# [38] = system: M14; assay: Cytotoxicity against human M14 cells at 10 uM after 48 hrs by sulforhodamine B assay relative to control; assay type: functional
# [39] = system: OVCAR-5; assay: Cytotoxicity against human OVCAR5 cells after 48 hrs by sulforhodamine B assay; assay type: functional; settings: OVCAR-5, 48 h
# [40] = read-out: LC50 (the source's name)
# Sequence of DNA topoisomerase 1 (Homo sapiens) (P11387 whole entry): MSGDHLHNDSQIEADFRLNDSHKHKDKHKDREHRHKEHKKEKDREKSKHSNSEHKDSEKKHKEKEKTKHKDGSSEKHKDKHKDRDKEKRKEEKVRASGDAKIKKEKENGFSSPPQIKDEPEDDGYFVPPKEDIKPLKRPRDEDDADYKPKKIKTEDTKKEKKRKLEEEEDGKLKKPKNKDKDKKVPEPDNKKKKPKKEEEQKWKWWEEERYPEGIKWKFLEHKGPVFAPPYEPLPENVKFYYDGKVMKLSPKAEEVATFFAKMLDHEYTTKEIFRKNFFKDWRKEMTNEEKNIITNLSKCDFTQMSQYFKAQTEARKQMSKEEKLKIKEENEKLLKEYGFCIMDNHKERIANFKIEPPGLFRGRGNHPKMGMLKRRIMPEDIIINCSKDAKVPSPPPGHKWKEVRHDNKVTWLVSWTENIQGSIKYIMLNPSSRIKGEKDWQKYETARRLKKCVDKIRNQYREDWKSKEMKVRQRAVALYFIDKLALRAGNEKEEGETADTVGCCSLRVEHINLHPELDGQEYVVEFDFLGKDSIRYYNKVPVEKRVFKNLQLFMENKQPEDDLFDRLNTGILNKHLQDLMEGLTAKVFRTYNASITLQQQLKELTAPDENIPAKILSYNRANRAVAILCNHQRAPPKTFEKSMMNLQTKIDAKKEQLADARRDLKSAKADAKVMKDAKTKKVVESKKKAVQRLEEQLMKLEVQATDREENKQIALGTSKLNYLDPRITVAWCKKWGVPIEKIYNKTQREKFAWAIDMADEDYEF
structure (smiles),measurement,setting,value
CCCCNCC(=O)Nc1ccc2c(c1)C(=O)c1cc(NC(=O)CNCCCC)ccc1-2,GI50,[1],1.27 µM
same,TGI,[1],2.64 µM
same,CC50,[1]; [40],5.48 µM
same,GI50,[2],1.64 µM
same,TGI,[2],3.38 µM
same,CC50,[2]; [40],7 µM
same,Activity,[3],9.6%
same,GI50,[4],1.1 µM
same,TGI,[4],2.53 µM
same,CC50,[4]; [40],5.86 µM
same,GI50,[5],1.4 µM
same,TGI,[5],4.14 µM
same,CC50,[5]; [40],14.9 µM
same,INH,[6],< 5 µM
same,Activity,[7],62.66%
same,Activity,[8],-42.18%
same,GI50,[9],1.94 µM
same,TGI,[9],3.46 µM
same,CC50,[9]; [40],6.18 µM
same,Activity,[10],93.22%
same,Activity,[11],64.82%
same,Activity,[12],-63.34%
same,Activity,[13],-4.48%
same,Activity,[14],24.17%
same,GI50,[15],2.07 µM
same,TGI,[15],6.74 µM
same,CC50,[15]; [40],26 µM
same,Activity,[16],-37.38%
same,Activity,[17],-78.38%
same,Activity,[18],-5.44%
same,GI50,[19],1.87 µM
same,TGI,[19],3.37 µM
same,CC50,[19]; [40],6.08 µM
same,GI50,[20],1.77 µM
same,TGI,[20],3.18 µM
same,CC50,[20]; [40],5.71 µM
same,GI50,[21],1.39 µM
same,TGI,[21],2.9 µM
same,CC50,[21]; [40],6.02 µM
same,GI50,[22],1.26 µM
same,TGI,[22],3.34 µM
same,CC50,[22]; [40],8.89 µM
same,Activity,[23],18.19%
same,Activity,[24],-29.46%
same,GI50,[25],1.85 µM
same,TGI,[25],3.57 µM
same,CC50,[25]; [40],6.89 µM
same,GI50,[26],0.56 µM
same,TGI,[26],2.29 µM
same,CC50,[26]; [40],7.26 µM
same,Activity,[27],-35.23%
same,Activity,[28],-52.59%
same,Activity,[29],-51.72%
same,Activity,[30],-53.98%
same,inhibition,[31],inactive
same,Activity,[32],-84.17%
same,GI50,[33],2.04 µM
same,TGI,[33],5.47 µM
same,CC50,[33]; [40],25.2 µM
same,Activity,[34],36.53%
same,GI50,[35],3.48 µM
same,TGI,[35],14.6 µM
same,CC50,[35]; [40],41.2 µM
same,GI50,[36],1.43 µM
same,TGI,[36],3.37 µM
same,CC50,[36]; [40],7.94 µM
same,Activity,[37],-27.51%
same,Activity,[38],-91.02%
same,GI50,[39],3.06 µM
same,TGI,[39],10.6 µM
same,CC50,[39]; [40],34.5 µM
